Values of other authors in PMC9915632 (International Journal of Molecular Sciences, 2023).
Non-standard residues stand in square brackets, D forms with d. Orn = NCCC[C@H](N)C(=O)O

Legend:
[1] = ref [22], cited from earlier work
[2] = ref [15]; cited from earlier work
SARS-CoV-2 = settings: in vitro; ref [16]; cited from earlier work

Substance | hemolysis ([1]; limits use to topical application) | tolerability ([1]; topical antibiotic) | antibacterial and fungicidal activity [2] | anti-SARS-CoV-2 activity (SARS-CoV-2)
For-Val-Gly-D-Leu-Ala-D-Val-Val-D-Val-Trp-D-Leu-Trp-D-Leu-Trp-D-Leu-Trp-Gly-ol [Gramicidin D, FDA-approved antimicrobial peptide drug, PubChem CID 45267103] | hemolytic side effect | well-tolerated antibiotic |  | 
cyclo(L[dF]PV[Orn]L[dF]PV[Orn]) [Gramicidin S] |  |  | potent antibacterial and fungicidal activity | anti-SARS-CoV-2 activity in vitro
